Assay results: paper PMC3826128 (Marine Drugs, 2013)
Read-outs that look alike come from different tables or passages of the source. Each block holds one compound with its values, some of them ahead of it.

How the values were obtained:
[1] = target: T1, Leishmania donovani DNA topoisomerase IB enzyme (LdTopIB) (Leishmania donovani, UniProt A0A3Q8IHS4+Q8WQM6); details: earlier work of the group; cited from earlier work
[2] = target: T1, Leishmania donovani DNA topoisomerase IB enzyme (LdTopIB); assay: Inhibition of the relaxation activity of recombinant LdTopIB (plasmid DNA relaxation assay); type: biochemical; details: 30 min at 37 °C, 1.56–100 µM
Description: (§1) One unit of recombinant LdTopIB was assayed in a plasmid DNA relaxation assay for 30 min at 37 °C in the presence of 1.56–100 µM of either acids 1 or 2. Reaction products were resolved in agarose gel and subsequently visualized by ethidium bromide staining. The relative position of the negatively supercoiled DNA substrate is indicated by Sc, R is the relaxed DNA, whereas the ladder of relaxed DNA topoisomer bands is shown in between. Reactions were stopped with a mixture of 1% SDS and 6.1 µg of proteinase K. Lane 1 contains 0.5 µg of pSK plasmid DNA and lane 2, indicated by a 0, is 10% DMSO.
(§2) The LdTopIB and hTopIB inhibitory bioassays were performed as previously described. A brief description of the experimental procedure can be found as the header of Figure 1 and Figure 3.

[3] = target: T2, human topoisomerase IB enzyme (hTopIB) (Homo sapiens, UniProt P11387); assay: Inhibition of the relaxation activity of hTopIB (plasmid DNA relaxation assay); type: biochemical; details: 30 min at 37 °C, 1–100 µM
T2 sequence (P11387 1-765): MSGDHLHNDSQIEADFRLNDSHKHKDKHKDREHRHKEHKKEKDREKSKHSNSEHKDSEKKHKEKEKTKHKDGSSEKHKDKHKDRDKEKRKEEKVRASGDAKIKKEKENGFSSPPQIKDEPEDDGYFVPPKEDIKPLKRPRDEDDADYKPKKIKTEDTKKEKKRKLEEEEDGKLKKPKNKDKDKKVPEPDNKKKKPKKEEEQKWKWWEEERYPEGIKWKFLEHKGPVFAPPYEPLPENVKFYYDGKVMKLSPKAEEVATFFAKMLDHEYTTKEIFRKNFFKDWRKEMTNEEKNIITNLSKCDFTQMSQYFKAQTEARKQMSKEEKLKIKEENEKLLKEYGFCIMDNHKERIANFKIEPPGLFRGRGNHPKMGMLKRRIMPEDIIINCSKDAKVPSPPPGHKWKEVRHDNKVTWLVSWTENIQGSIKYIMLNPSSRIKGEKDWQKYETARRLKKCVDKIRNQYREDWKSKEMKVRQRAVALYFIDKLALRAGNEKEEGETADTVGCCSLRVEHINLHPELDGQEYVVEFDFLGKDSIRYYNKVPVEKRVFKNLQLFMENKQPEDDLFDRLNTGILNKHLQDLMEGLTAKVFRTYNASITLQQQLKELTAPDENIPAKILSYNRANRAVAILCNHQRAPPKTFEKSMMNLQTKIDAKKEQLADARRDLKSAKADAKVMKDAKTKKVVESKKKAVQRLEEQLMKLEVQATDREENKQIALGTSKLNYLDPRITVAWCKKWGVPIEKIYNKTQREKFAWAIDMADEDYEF
Description: as §1, with “hTopIB” for “of recombinant LdTopIB”, “1–100” for “1.56–100”
as §2

[4] = test system: L. donovani promastigotes; assay: Toxicity towards L. donovani promastigotes; type: cell-based; details: Leishmania donovani
From the text: (§3) The experimental procedures employed to assess the toxicity of acids 1 and 2 towards L. infantum and L. donovani are the same as the ones previously described. CPT was used as the control drug.

[5] = test system: Murine Macrophages BALB/c; assay: Toxicity towards murine macrophages; type: cell-based; details: Mus musculus, Macrophage
From the text: Murine macrophages were chosen as reference for this study since Leishmania spp. normally infects macrophages and in macrophages is where Leishmania promastigotes are transformed into Leishmania amastigotes. […] The experimental procedures employed to assess the toxicity of acids 1 and 2 towards L. infantum and L. donovani are the same as the ones previously described. CPT was used as the control drug.

[6] = test system: LdTopIB CPT^R (LdTopIL^1−561/S175end); assay: Inhibition of CPT-resistant doubly truncated LdTopIB; type: biochemical, Leishmania donovani; details: 100 µM, 4 min at 25 °C, judged by supercoiled DNA band
Description: Figure 4 Methoxylated fatty acids inhibit LdTopIB by a CPT-independent mechanism. […] Samples were incubated for 4 min at 25 °C, stopped with 1% SDS and digested for one extra hour at 37 °C in the presence of 1 mg/mL proteinase K. DNA was extracted with one volume of phenol-chloroform and samples were run on a 1% agarose gel containing ethidium bromide to a final concentration of 40 μg/mL in order to separate supercoiled and relaxed DNA. The nicked band corresponds to the stabilized cleavage complexes. The results are representative of three independent trials.

[7] = test system: L. infantum promastigotes; assay: Toxicity towards L. infantum promastigotes; type: cell-based, Leishmania infantum
From the text: as §3

[8] = relaxation activity, read-out: LdTopIB EC50

T1 sequence (A0A3Q8IHS4 entry or part of it): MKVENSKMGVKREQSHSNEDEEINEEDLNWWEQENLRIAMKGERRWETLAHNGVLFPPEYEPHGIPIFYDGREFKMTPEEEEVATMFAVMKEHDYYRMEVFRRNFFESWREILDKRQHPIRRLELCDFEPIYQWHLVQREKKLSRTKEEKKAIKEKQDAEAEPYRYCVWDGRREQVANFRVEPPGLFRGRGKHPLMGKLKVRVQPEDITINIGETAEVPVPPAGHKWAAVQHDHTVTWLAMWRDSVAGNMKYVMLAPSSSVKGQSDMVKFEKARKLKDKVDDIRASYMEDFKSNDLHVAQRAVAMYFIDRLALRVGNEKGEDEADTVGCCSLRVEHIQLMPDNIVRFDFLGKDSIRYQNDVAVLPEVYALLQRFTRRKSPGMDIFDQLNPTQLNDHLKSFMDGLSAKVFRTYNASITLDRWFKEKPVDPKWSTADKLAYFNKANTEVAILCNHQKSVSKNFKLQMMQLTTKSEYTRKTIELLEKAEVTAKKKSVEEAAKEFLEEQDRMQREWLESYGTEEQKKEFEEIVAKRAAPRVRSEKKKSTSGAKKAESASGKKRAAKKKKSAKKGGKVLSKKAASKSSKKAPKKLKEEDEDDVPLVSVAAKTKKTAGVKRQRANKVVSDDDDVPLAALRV
T1 sequence (Q8WQM6 entry or part of it): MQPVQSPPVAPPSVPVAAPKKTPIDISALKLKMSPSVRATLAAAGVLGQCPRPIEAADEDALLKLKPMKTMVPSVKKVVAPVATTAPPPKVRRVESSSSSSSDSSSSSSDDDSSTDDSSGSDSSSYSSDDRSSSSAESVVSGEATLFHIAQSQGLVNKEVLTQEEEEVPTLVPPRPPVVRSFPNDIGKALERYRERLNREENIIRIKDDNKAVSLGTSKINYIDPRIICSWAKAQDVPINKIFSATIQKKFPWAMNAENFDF

Compound: CCCCCCCCCC/C=C\CCCC(OC)C(=O)O (racemic) [(±)-2-methoxy-6Z-heptadecenoic acid]
EC50 [1]: 41 ± 6 µM

Compound: CCCCCCCCCCC#CCCCC(OC)C(=O)O (racemic) [(±)-2-OMe-6-heptadecynoic acid]
EC50 [1]: 17 ± 1 µM

EC50 [2, 8]: 53 ± 3 µM
EC50 [3]: > 100 µM
Compound: CCCCCCCCCCCCCC#CCCCC(OC)C(=O)O (racemic) [compound 12, (±)-2-methoxy-6-icosynoic acid]
IC50 ([4]; footnote a, in the column L. infantum EC50, read-out: IC50 against L. donovani promastigotes): 100 ± 10 µM
EC50 ([4]; promastigotes): 100 µM
IC50 [5]: > 100 µM

Compound: CCCCCCCCCCC#CCCC#CCCC(OC)C(=O)O (racemic) [compound 2, (±)-2-methoxy-5,9-eicosadiynoic acid]
EC50 [2, 8]: 22 ± 1 µM
EC50 [3]: > 100 µM
Inhibition of LdTopIB CPT^R [6]: completely inhibit
EC50 [7]: 240 ± 10 µM
EC50 ([7]; Leishmania infantum): 240 to 260 µM
IC50 [5]: 90 ± 20 µM

Compound: CCCCCCCCCC/C=C\CC/C=C\CCC(OC)C(=O)O (racemic) [compound 1, (5Z,9Z)-(±)-2-methoxy-5,9-eicosadienoic acid]
EC50 [2, 8]: 31 ± 2 µM
EC50 [3]: > 100 µM
Inhibition of LdTopIB CPT^R [6]: completely inhibit
EC50 [7]: 260 ± 20 µM
EC50 ([7]; Leishmania infantum): 240 to 260 µM
IC50 [5]: 110 ± 10 µM

Compound: CC[C@@]1(O)C(=O)OCc2c1cc1n(c2=O)Cc2cc3ccccc3nc2-1 [CPT, Camptothecin, reference compound]
EC50 ([2]; LdTopIB EC50, relaxation activity): 0.7 ± 0.1 µM
Inhibition of LdTopIB CPT^R [6]: not able to inhibit
EC50 ([7]; Leishmania infantum): 1.1 ± 0.1 µM
IC50 [5]: 0.6 ± 0.1 µM
